Experimental data published in patent US20260232658A1, “AZETIDINYL BENZOXAZOLE COMPOUNDS AND THEIR USE AS MER AND AXL INHIBITORS” (DONG-A ST CO., LTD., priority 2022, published 2026).

What was measured:
human MER (528-end) = target: T1, human MER (528-end) (Homo sapiens, UniProt Q12866); test: HTRF kinase activity biochemical assay, MER; conditions: recombinant kinase, 10 uM ATP, 30 minutes pre-incubation; read-out: HTRF MERTK IC50;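 further: phosphorylation of a biotin-tagged tyrosine kinase substrate detected by Eu3+-cryptate antibody and streptavidin-XL665 time-resolved fluorescence, read after 1 h at room temperature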
T1 construct: human MER (528-end); purchased Carnabio, Japan
T1 sequence (Q12866 528-999 limits assumed): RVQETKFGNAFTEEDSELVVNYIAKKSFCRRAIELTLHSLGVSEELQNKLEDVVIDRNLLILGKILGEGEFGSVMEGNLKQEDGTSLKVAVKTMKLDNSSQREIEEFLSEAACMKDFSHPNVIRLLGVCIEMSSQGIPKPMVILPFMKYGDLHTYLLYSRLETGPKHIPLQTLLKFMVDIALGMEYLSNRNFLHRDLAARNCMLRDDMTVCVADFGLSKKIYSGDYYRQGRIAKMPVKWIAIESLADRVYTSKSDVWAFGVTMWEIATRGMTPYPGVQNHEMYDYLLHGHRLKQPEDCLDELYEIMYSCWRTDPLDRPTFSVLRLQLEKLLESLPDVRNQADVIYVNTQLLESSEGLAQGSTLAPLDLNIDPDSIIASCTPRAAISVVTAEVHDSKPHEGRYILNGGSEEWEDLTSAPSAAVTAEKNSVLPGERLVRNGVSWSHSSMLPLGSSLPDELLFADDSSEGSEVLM

human AXL (473-end) = target: T2, human AXL (473-end) (Homo sapiens, UniProt P30530); test: HTRF kinase activity biochemical assay, AXL; conditions: recombinant kinase, 10 uM ATP, 30 minutes pre-incubation; read-out: HTRF AXL IC50;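 further: phosphorylation of a biotinylated tyrosine kinase substrate detected via Eu3+-cryptate anti-TK antibody and streptavidin-XL665, fluorescence read after a 1 h incubation at room temperature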
T2 construct: human AXL (473-end); purchased SignalChem, Canada
T2 sequence (P30530 473-894 limits assumed): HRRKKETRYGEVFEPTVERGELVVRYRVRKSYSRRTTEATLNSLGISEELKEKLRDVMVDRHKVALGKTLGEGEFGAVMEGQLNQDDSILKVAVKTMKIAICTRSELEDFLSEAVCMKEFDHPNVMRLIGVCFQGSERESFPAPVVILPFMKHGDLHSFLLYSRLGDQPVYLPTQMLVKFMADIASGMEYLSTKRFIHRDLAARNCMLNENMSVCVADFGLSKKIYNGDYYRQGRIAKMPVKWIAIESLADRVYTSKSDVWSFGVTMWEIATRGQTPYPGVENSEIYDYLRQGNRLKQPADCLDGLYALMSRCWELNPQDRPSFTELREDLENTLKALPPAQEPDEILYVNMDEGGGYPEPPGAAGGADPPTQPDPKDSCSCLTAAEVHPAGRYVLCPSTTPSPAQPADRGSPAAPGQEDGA

TYRO3 (455-end) = target: T3, TYRO3 (455-end) (Homo sapiens, UniProt Q06418); test: HTRF kinase activity biochemical assay, TYRO3; conditions: recombinant kinase, 10 uM ATP, 30 minutes pre-incubation; read-out: HTRF TYRO IC50;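 further: biotinylated tyrosine kinase substrate phosphorylation detected via streptavidin-XL665 and Eu3+-cryptate anti-phospho antibody time-resolved fluorescence, read after 1 h detection at room temperature, 384-well format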
T3 construct: TYRO3 (455-end); purchased SignalChem, Canada
T3 sequence (Q06418 455-890 limits assumed): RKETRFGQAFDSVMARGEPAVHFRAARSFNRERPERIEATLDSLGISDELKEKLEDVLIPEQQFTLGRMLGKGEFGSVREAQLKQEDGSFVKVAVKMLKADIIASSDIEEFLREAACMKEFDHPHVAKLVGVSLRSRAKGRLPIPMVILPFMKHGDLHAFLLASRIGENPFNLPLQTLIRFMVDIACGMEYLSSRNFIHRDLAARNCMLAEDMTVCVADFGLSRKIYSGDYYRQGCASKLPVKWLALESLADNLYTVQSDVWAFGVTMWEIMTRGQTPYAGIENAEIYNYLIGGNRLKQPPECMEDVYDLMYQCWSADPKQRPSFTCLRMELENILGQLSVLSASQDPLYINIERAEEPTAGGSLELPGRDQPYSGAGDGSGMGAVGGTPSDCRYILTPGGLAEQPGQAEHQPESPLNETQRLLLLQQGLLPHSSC

MC-38 cells = test: MC-38 Efficacy Assay (tumor growth inhibition); format: in vivo, Female C57BL/6 mice; conditions: once a day for 21 days, subcutaneous MC-38 tumors in C57BL/6 mice

Structure (SMILES)	IC50 (human MER (528-end)) [nM]	IC50 (human AXL (473-end)) [nM]	IC50 (TYRO3 (455-end)) [nM]	% TGI (dose) (MC-38 cells; 10 mg/kg/d) [%]	% TGI (dose) (MC-38 cells; 30 mg/kg/d) [%]	% TGI (dose) (MC-38 cells; 15 mg/kg/d) [%]
CC(C)(O)Cn1cc(Nc2ncc(C3CN(c4nc5ccc(F)cc5o4)C3)nc2C(N)=O)cn1 [Example 28, 6-[1-(6-fluoro-1,3-benzoxazol-2-yl)azetidin-3-yl]-3-{[1-(2-hydroxy-2-methylpropyl)-1H-pyrazol-4-yl]amino}pyrazine-2-carboxamide]	1	6	150	17		
CC(C)(O)Cn1cc(Nc2ncc(C3CN(c4nc5ccccc5o4)C3)nc2C(N)=O)cn1 [Example 30, 6-[1-(1,3-benzoxazol-2-yl)azetidin-3-yl]-3-{[1-(2-hydroxy-2-methylpropyl)-1H-pyrazol-4-yl]amino}pyrazine-2-carboxamide]	3	11	360	33		
CN1CCC(Oc2ccc3nc(N4CC(c5cnc(Nc6cnn(C)c6)c(C(N)=O)n5)C4)oc3c2)C1=O (stereo not drawn) [Example 72, 6-(1-{6-[(1-methyl-2-oxopyrrolidin-3-yl)oxy]-1,3-benzoxazol-2-yl}azetidin-3-yl)-3-[(1-methyl-1H-pyrazol-4-yl)amino]pyrazine-2-carboxamide]	1	3	940		44	
Cn1cc(Nc2ncc(C3CN(c4nc5ccc(OCCC(C)(C)OP(=O)(O)O)cc5o4)C3)nc2C(N)=O)cn1 [Example 77, 4-{[2-(3-{6-carbamoyl-5-[(1-methyl-1H-pyrazol-4-yl)amino]pyrazin-2-yl}azetidin-1-yl)-1,3-benzoxazol-6-yl]oxy}-2-methylbutan-2-yl dihydrogen phosphate]	33	54	3300			39
Cn1cc(Nc2ccc(C3CN(c4nc5ccc(OCC(C)(C)O)cc5o4)C3)nc2C(N)=O)cn1 [Example 85, 6-{1-[6-(2-hydroxy-2-methylpropoxy)-1,3-benzoxazol-2-yl]azetidin-3-yl}-3-[(1-methyl-1H-pyrazol-4-yl)amino]pyridine-2-carboxamide]	2	4	1850	37		
Cn1cc(Nc2ccc(C3CN(c4nc5ccc(OCC(C)(C)OP(=O)(O)O)cc5o4)C3)nc2C(N)=O)cn1 [Example 106, 1-{[2-(3-{6-carbamoyl-5-[(1-methyl-1H-pyrazol-4-yl)amino]pyridin-2-yl}azetidin-1-yl)-1,3-benzoxazol-6-yl]oxy}-2-methylpropan-2-yl dihydrogen phosphate]	1.8	6	1070			
Cn1cc(Nc2ncc(C3CN(c4nc5ccc(OCC(C)(C)C#N)cc5o4)C3)nc2C(N)=O)cn1 [Example 107, 6-{1-[6-(2-cyano-2-methylpropoxy)-1,3-benzoxazol-2-yl]azetidin-3-yl}-3-[(1-methyl-1H-pyrazol-4-yl)amino]pyrazine-2-carboxamide]	< 1	1.5	46			
Cn1cc(Nc2ccc(C3CN(c4nc5ccc(OCC(C)(C)OC(=O)CN)cc5o4)C3)nc2C(N)=O)cn1 [Example 108, 1-{[2-(3-{6-carbamoyl-5-[(1-methyl-1H-pyrazol-4-yl)amino]pyridin-2-yl}azetidin-1-yl)-1,3-benzoxazol-6-yl]oxy}-2-methylpropan-2-yl glycinate]	< 1	4	880			
Cn1cc(Nc2ccc(C3CN(c4nc5ccc(OCCC(C)(C)OP(=O)(O)O)cc5o4)C3)nc2C(N)=O)cn1 [Example 109, 4-{[2-(3-{6-carbamoyl-5-[(1-methyl-1H-pyrazol-4-yl)amino]pyridin-2-yl}azetidin-1-yl)-1,3-benzoxazol-6-yl]oxy}-2-methylbutan-2-yl dihydrogen phosphate]	27	78	2200			
Cn1cc(Nc2ccc(C3CN(c4nc5ccc(OCCC(C)(C)OC(=O)CN)cc5o4)C3)nc2C(N)=O)cn1 [Example 110, 4-{[2-(3-{6-carbamoyl-5-[(1-methyl-1H-pyrazol-4-yl)amino]pyridin-2-yl}azetidin-1-yl)-1,3-benzoxazol-6-yl]oxy}-2-methylbutan-2-yl glycinate]	< 1	1.8	280			
Cn1cc(Nc2ncc(C3CN(c4nc5ccc(C(C)(C)CO)cc5o4)C3)nc2C(N)=O)cn1 [Example 111, 6-{1-[6-(1-hydroxy-2-methylpropan-2-yl)-1,3-benzoxazol-2-yl]azetidin-3-yl}-3-[(1-methyl-1H-pyrazol-4-yl)amino]pyrazine-2-carboxamide]	5	6	640			

The next lines start with results.

IC50 (human MER (528-end)) [nM]	IC50 (human AXL (473-end)) [nM]	IC50 (TYRO3 (455-end)) [nM]	Structure (SMILES)	% TGI (dose) (MC-38 cells; 10 mg/kg/d) [%]	% TGI (dose) (MC-38 cells; 30 mg/kg/d) [%]	% TGI (dose) (MC-38 cells; 15 mg/kg/d) [%]
< 1	1	48	Cn1cc(Nc2ncc(C3CN(c4nc5ccc(OCc6ccn(C)n6)cc5o4)C3)nc2C(N)=O)cn1 [Example 80, 3-[(1-methyl-1H-pyrazol-4-yl)amino]-6-(1-{6-[(1-methyl-1H-pyrazol-3-yl)methoxy]-1,3-benzoxazol-2-yl}azetidin-3-yl)pyrazine-2-carboxamide]	23		
4	27	620	CCOC(=O)Cn1cc(COc2ccc3nc(N4CC(c5cnc(Nc6cnn(C)c6)c(C(N)=O)n5)C4)oc3c2)cn1 [Example 104C, ethyl [4-({[2-(3-{6-carbamoyl-5-[(1-methyl-1H-pyrazol-4-yl)amino]pyrazin-2-yl}azetidin-1-yl)-1,3-benzoxazol-6-yl]oxy}methyl)-1H-pyrazol-1-yl]acetate]			
< 1	5	53	Cn1cnc(-c2ccc3nc(N4CC(c5cnc(Nc6cnn(C)c6)c(C(N)=O)n5)C4)oc3c2)c1 [Example 105, 6-{1-[6-(1-methyl-1H-imidazol-4-yl)-1,3-benzoxazol-2-yl]azetidin-3-yl}-3-[(1-methyl-1H-pyrazol-4-yl)amino]pyrazine-2-carboxamide]			
18	43	3230	CCOC(=O)C(C)(C)c1ccc2nc(N3CC(c4cnc(Nc5cnn(C)c5)c(C(N)=O)n4)C3)oc2c1 [Example 111F, ethyl 2-[2-(3-{6-carbamoyl-5-[(1-methyl-1H-pyrazol-4-yl)amino]pyrazin-2-yl}azetidin-1-yl)-1,3-benzoxazol-6-yl]-2-methylpropanoate]			
52	69	5860	Cn1cc(Nc2ncc(C3CN(c4nc5ccc(OCC(C)(C)OP(=O)(O)O)cc5o4)C3)nc2C(N)=O)cn1 [Example 112, 1-{[2-(3-{6-carbamoyl-5-[(1-methyl-1H-pyrazol-4-yl)amino]pyrazin-2-yl}azetidin-1-yl)-1,3-benzoxazol-6-yl]oxy}-2-methylpropan-2-yl dihydrogen phosphate]			
< 1	1	160	Cn1cc(Nc2ncc(C3CN(c4nc5ccc(OCC(C)(C)OC(=O)CN)cc5o4)C3)nc2C(N)=O)cn1 [Example 113, 1-{[2-(3-{6-carbamoyl-5-[(1-methyl-1H-pyrazol-4-yl)amino]pyrazin-2-yl}azetidin-1-yl)-1,3-benzoxazol-6-yl]oxy}-2-methylpropan-2-yl glycinate]			
